Data published in US11878009B2, “Anticancer combination of chidamide and celecoxib salts” (Great Novel Therapeutics Biotech & Medicals Corporation, priority 2019, dated 2024).

Experiments:
[1] = low solubility and high permeability; cited from earlier work
[2] = Saturation solubility in ddH2O; type: physicochemical; details: for Saturation & Solubility: ddH2O, 25° C., 100 rpm, 90 minutes, triplicates, mean ± SD; for water solubility (in words): saturation solubility study
Method: Determination of Saturation Solubility of Chidamide-HCl, Chidamide-H2SO4, and Celecoxib-Na Salts. Sample of 5 mg of chidamide-HCl, chidamide-H2SO4, or celecoxib-Na salts was added to 5 ml volumetric flasks containing ddH2O and shook at 100 rpm in an incubator at 25° C. for 90 minutes. The resulting suspension was filtered through a 0.22 μm filter. The concentrations of chidamide-HCl, chidamide-H2SO4, and celecoxib-Na salts were determined spectrophotometrically at 256 nm, 256 nm, and 253 nm, respectively. The saturation solubility of each sample was determined in triplicates and the mean value and standard deviation were reported. Preparation of standard curves is described as below.

Saturation & Solubility [2]	water solubility (in words) [2]	SMILES	BCS class [1]
BDL	water-insoluble	Cc1ccc(-c2cc(C(F)(F)F)nn2-c2ccc(S(N)(=O)=O)cc2)cc1 [Celecoxib-API, 4-[5-(4-Methylphenyl)-3-(trifluoromethyl)pyrazol-1-yl]benzenesulfonamide, reference compound]	class II
BDL	water-insoluble	Nc1cc(F)ccc1NC(=O)c1ccc(CNC(=O)/C=C/c2cccnc2)cc1 [Chidamide-API, 4-(((E)-3-(pyridin-3-yl)acrylamido)methyl)-N-(2-amino-4-fluorophenyl)benzamide, reference compound]	
